From paper PMC3742671, “Structure, Antimicrobial Activities and Mode of Interaction with Membranes of Bovel Phylloseptins from the Painted-Belly Leaf Frog, Phyllomedusa sauvagii” (PLoS ONE, 2013)
Ends that are not written are not given here.

Assays:
E. coli ML-35p = conditions: LB medium (pH 7), absorbance at 630 nm; average of three independent experiments in triplicates
Experimental: (§1) The effect of phylloseptins-S was evaluated against several bacterial strains and yeasts (Table 2). Bacteria were cultured in Luria-Bertani broth (LB), whereas yeasts were cultured in Yeast Peptone Dextrose medium (YPD), and minimal inhibitory concentrations (MICs) were determined by measuring the absorbance at 630 nm in 96-well microtitration plates, as described previously. Leishmanicidal activity of phylloseptins-S was also examined against promastigotes of different Leishmania species: Leishmania infantum (strain MHOM/MA/67/ITMAP-263), L. major (MHOM/SU/73/5-ASKH) and L. braziliensis (MHOM/BR/75/M2904). Culture of promastigotes and determination of the growth inhibition were performed as previously described, [22], [23].
(§2) The antimicrobial activity of synthetic PLS-S1 to -S5 was assayed in LB medium (pH 7) against several Gram-negative and Gram-positive bacteria, and multi-drug resistant S. aureus strains. […] The antiparasitic activity of PLSs was also determined against three Leishmania species (L. infantum, L. major, and L. braziliensis). […] Because PLS-S3 contains histidines as basic residues and that approximately only 11% of these residues are positively charged at pH 7, we have evaluated the antibacterial activity at pH 5 at which His residues are predominantly positively charged (∼91%).

P. aeruginosa ATCC 27853 = conditions: LB medium (pH 7), absorbance at 630 nm; average of three independent experiments in triplicates
Experimental: as §1, §2

E. coli ATCC 25922 = conditions: for MIC: ATCC 25922, pH 7
Experimental: as §1, §2

K. pneumoniae ATCC 13883 = conditions: LB medium (pH 7), absorbance at 630 nm; average of three independent experiments in triplicates
Experimental: as §1, §2

S. aureus ST1065 = conditions: LB medium (pH 7), absorbance at 630 nm; average of three independent experiments in triplicates
Experimental: as §1, §2

E. faecalis ATCC 29212 = conditions: LB medium (pH 7), absorbance at 630 nm; average of three independent experiments in triplicates
Experimental: as §1, §2

S. pyogenes ATCC 19615 = conditions: LB medium (pH 7), absorbance at 630 nm; average of three independent experiments in triplicates
Experimental: as §1, §2

S. aureus ATCC 25923 = conditions: LB medium (pH 7), absorbance at 630 nm, 96-well plates; average of three independent experiments in triplicates
Experimental: as §1, §2

S. aureus ATCC BAA-44 = conditions: multidrug resistant strain; LB medium (pH 7), absorbance at 630 nm; average of three independent experiments in triplicates
Experimental: as §1, §2

S. aureus ATCC 43300 = conditions: strain resistant to methicillin and oxacillin; LB medium (pH 7), absorbance at 630 nm; average of three independent experiments in triplicates
Experimental: as §1, §2

A. baumannii ATCC 19606 = conditions: LB medium (pH 7), absorbance at 630 nm; average of three independent experiments in triplicates
Experimental: as §1, §2

human erythrocytes = type: cell-based
Experimental: Hemolytic assays were performed using fresh human erythrocytes from a healthy donor according to a previously described protocol. Cytotoxic activity of PLS-S was also determined on the human leukemia monocyte cell line THP-1. 80 µL of 6.25×10^5 cells/mL were incubated for 72 h with 20 µL of peptide (3 to 50 µM, final concentrations) at 37°C and 5% CO2 in RPMI medium supplemented with 10% FCS. The cell viability was determined by adding 10 µL of methylthiazolyldiphenyl-tetrazolium bromide (MTT, 10 mg/mL) to the plate. After 4h incubation at 37°C, formazan was solubilized with 100 µL of a solution containing 50% isopropanol and 10% SDS, and the absorbance was measured at 570 nm. The lytic concentration 50 (LC50), which correspond to the peptide concentration producing 50% lysis, was determined with the GraphPad Prism® 5.0 software. Results were expressed as the mean of three independent experiments performed in triplicates.

[1] = Circular dichroism spectroscopy with DMPC/DMPG (3:1) large unilamellar vesicles; type: physicochemical; conditions: CD, peptide 30 µM, DMPC/DMPG (3:1) LUVs 1 mg/mL in PBS pH 7.3
Experimental: The far-ultraviolet circular dichroism (CD) spectra were recorded as described. Phylloseptins-S (30 µM) were solubilized either in 80 mM sodium dodecyl sulfate (SDS) or in phosphate-buffered saline (PBS: 10 mM phosphate, pH 7.3) containing 1 mg/mL of large unilamellar vesicles (LUVs) of 1,2-dimyristoyl-sn-glycero-3-phosphocholine (DMPC) and 1,2-dimyristoyl-sn-glycero-3-phosphoglycerol (DMPG) (3∶1 mol/mol). DMPC and DMPG were purchased from Avanti Polar Lipids, Inc. Each spectrum was the average of four scans. CD measurements are reported as Δ/n, where Δ is the dichroic increment and n is the number of residues in the peptide.
Figure 6 Circular dichroism spectra of synthetic phylloseptins-S (30 µM). (A) DMPC/DMPG (3∶1) large unilamellar vesicles in PBS (1 mg/mL). (B) 80 mM SDS. CD measurements are reported as the dichroic increment (Δε) per residue.

## FLSLIPHIVSGVASIAKHF-NH2 [PLS-S1]
E. coli ML-35p
  MIC: >100 µM
P. aeruginosa ATCC 27853
  MIC: >100 µM
E. coli ATCC 25922; ATCC 25922, pH 5
  MIC at pH 5: 12.5 µM
E. coli ATCC 25922
  MIC: 70 µM
K. pneumoniae ATCC 13883
  MIC: >100 µM
S. aureus ST1065
  MIC: 6.25 µM
E. faecalis ATCC 29212
  MIC: 25 µM
S. pyogenes ATCC 19615
  MIC: 3.12 µM
S. aureus ATCC 25923
  MIC: 6.25 µM
S. aureus ATCC BAA-44
  MIC: 6.25 µM
S. aureus ATCC 43300
  MIC: 6.25 µM
A. baumannii ATCC 19606
  MIC: 6.25 µM
Human erythrocytes
  LC50 (peptide concentration producing 50% lysis): 39 µM
[1]
  helix content: 70%

## FLSMIPHIVSGVAALAKHL-NH2 [PLS-S4]
E. coli ML-35p
  MIC: 25 µM
P. aeruginosa ATCC 27853
  MIC: 100 µM
E. coli ATCC 25922
  MIC: 25 µM
K. pneumoniae ATCC 13883
  MIC: 25 µM
S. aureus ST1065
  MIC: 6.25 µM
E. faecalis ATCC 29212
  MIC: 50 µM
S. pyogenes ATCC 19615
  MIC: 3.12 µM
S. aureus ATCC 25923
  MIC: 6.25 µM
S. aureus ATCC BAA-44
  MIC: 6.25 µM
S. aureus ATCC 43300
  MIC: 6.25 µM
A. baumannii ATCC 19606
  MIC: 6.25 µM
Human erythrocytes
  LC50 (peptide concentration producing 50% lysis): 33 µM
[1]
  helix content: 68%

## FLSLIPHIVSGVASLAKHF-NH2 [PLS-S2]
E. coli ML-35p
  MIC: 30 µM
P. aeruginosa ATCC 27853
  MIC: 200 µM
E. coli ATCC 25922
  MIC: 25 µM
K. pneumoniae ATCC 13883
  MIC: 25 µM
S. aureus ST1065
  MIC: 6.25 µM
E. faecalis ATCC 29212
  MIC: 25 µM
S. pyogenes ATCC 19615
  MIC: 1.56 µM
S. aureus ATCC 25923
  MIC: 6.25 µM
S. aureus ATCC BAA-44
  MIC: 6.25 µM
S. aureus ATCC 43300
  MIC: 6.25 µM
A. baumannii ATCC 19606
  MIC: 6.25 µM
Human erythrocytes
  LC50 (peptide concentration producing 50% lysis): 25 µM
[1]
  helix content: 80%
